Reference: patent publication US8633245B2, “PAI-1 inhibitor” (Institute of Medicinal Molecular Design, Inc., priority 2008, dated 2014)

How the values were obtained:
Type in all cases: biochemical
recombinant rat PAI-1 = biological target: T1, recombinant rat PAI-1 (Rattus norvegicus, UniProt P20961); experiment: Test Example 3: rat PAI-1 inhibitory activity (as Test Example 2 with rat PAI-1); settings: for inhibition at 10 µM: read-out: Inhibition Rate of PAI-1 Activity (%); for IC50: rat PAI-1, calculated from the inhibition rates
T1 construct: purchased Molecular Innovations, Inc
T1 sequence (P20961 24-402): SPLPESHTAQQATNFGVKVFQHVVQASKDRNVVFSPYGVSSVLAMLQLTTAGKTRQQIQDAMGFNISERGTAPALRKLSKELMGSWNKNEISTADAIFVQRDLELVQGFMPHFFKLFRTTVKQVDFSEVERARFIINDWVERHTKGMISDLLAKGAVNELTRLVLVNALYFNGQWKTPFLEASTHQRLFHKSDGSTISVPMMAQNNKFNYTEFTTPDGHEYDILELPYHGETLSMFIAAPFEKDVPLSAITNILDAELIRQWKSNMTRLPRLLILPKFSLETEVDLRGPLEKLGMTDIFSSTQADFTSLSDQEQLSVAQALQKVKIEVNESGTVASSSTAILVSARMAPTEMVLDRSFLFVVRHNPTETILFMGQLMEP
Method: To this solution, 6 μl of 80 nM recombinant human PAI-1 (Molecular Innovations, Inc.) solution prepared with Tris buffer was added, and the plate was incubated for 5 minutes at room temperature. Furthermore, 30 μl of 800 IU/ml two-chain tPA (Activity Standard; American diagnostica, inc.) prepared with Tris buffer was added, and the mixed solution was incubated for 15 minutes at room temperature. Then, 30 μl of 400 μM fluorogenic substrate (Pyr-Gly-Arg-MCA; Peptide Institute, Inc.) for tPA prepared with Tris buffer was added and reacted for 30 minutes at room temperature.

recombinant human PAI-1 [1] = biological target: T2, recombinant human PAI-1 (Homo sapiens, UniProt P05121); experiment: Test Example 2: human PAI-1 inhibitory activity (tPA fluorogenic substrate, pH 7.4 HEPES buffer); settings: human PAI-1; calculated from the inhibition rates
T2 construct: purchased Molecular Innovations, Inc
Method: 0.1 M HEPES, 0.1 M NaCl. 1 mM EDTA. 0.1% Polyethylene glycol 8,000 (Hampton Research Corporation),
2 mM Dimethyldecylphoshine oxide [Apo-10] (Fluka Corporation)

recombinant human PAI-1 [2] = biological target: T2, recombinant human PAI-1; experiment: Test Example 1: human PAI-1 inhibitory activity (tPA fluorogenic substrate, pH 7.5 Tris buffer); settings: Tris buffer
Method: 50 mM Tris, 150 mM NaCl, 10 μg/ml BSA, 0.01% Tween80 (SIGMA-ALDRICH Corporation)

T2 sequence (P05121 24-402): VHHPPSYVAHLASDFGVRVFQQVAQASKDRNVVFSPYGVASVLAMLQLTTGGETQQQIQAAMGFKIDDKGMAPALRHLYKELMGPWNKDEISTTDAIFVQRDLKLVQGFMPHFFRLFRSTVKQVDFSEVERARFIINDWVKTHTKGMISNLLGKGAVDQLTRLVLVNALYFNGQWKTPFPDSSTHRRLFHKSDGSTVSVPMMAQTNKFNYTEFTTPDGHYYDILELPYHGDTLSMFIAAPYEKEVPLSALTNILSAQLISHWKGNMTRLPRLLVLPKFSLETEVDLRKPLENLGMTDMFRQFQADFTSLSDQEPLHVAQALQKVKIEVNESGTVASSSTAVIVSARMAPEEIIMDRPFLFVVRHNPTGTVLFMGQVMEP

SMILES	IC50 (recombinant human PAI-1 [1]) [nM]	IC50 (recombinant rat PAI-1) [nM]	Inhibition Rate of PAI-1 Activity (%) (recombinant human PAI-1 [2]; Compound Concentration 5 μM)	Inhibition Rate of PAI-1 Activity (%) (recombinant human PAI-1 [2]; Compound Concentration 10 μM)	Inhibition Rate of PAI-1 Activity (%) (recombinant human PAI-1 [2]; Compound Concentration 25 μM)	also measured
CC(C)(C)c1ccc(Oc2ccc(-c3ccc(OC(F)(F)F)cc3)cc2CCC(=O)O)cc1 [Compound 13]	–	–	–	–	–	inhibition at 10 µM (recombinant rat PAI-1): > 99%
O=C(O)CCc1c(Oc2ccc(OC(F)(F)F)cc2)cccc1Oc1ccc(OC(F)(F)F)cc1 [Compound 98]	1540	3530	–	–	–	–
CC(C)(Oc1cc(-c2ccc(OC(F)(F)F)cc2)ccc1OCc1ccc(C(C)(C)C)cc1)C(=O)O [Compound 106]	1150	1710	–	–	–	inhibition at 10 µM (recombinant rat PAI-1): > 99%
CC(C)(C)c1ccc(Oc2cccc(-c3ccc(OC(F)(F)F)cc3)c2OCC(=O)O)cc1 [Compound 113]	1750	3680	–	–	–	–
CC(C)(Oc1cc(-c2ccc(OC(F)(F)F)cc2)ccc1OCCCCc1ccccc1)C(=O)O [Compound 116]	1650	3240	–	–	–	–
CCCCCN(C(=O)C(=O)O)c1ccc(-c2ccc(OC(F)(F)F)cc2)cc1 [Compound 254]	–	–	3	9	31	–
CC(C)(C)CN(C(=O)C(=O)O)c1ccc(-c2ccc(OC(F)(F)F)cc2)cc1 [Compound 255]	–	–	2	8	23	–
O=C(O)CCc1cc(OCc2ccc(OC(F)(F)F)cc2)ccc1OCc1ccc(OC(F)(F)F)cc1 [Compound 404]	–	–	14	31	84	–
CC(C)(C)c1ccc(COc2cc(/C=C/C(=O)O)cc(Oc3ccc(OC(F)(F)F)cc3)c2)cc1 [Compound 409]	–	–	26	59	97	–
CC(C)(C)c1ccc(-c2ccc(Oc3ccc(-c4ccc(OC(F)(F)F)cc4)cc3/C=C/C(=O)O)c(CCC(=O)O)c2)cc1 [Compound 540]	–	–	75	91	91	–
CC(C)(C)c1ccc(-c2ccc(Oc3ccc(-c4ccc(OC(F)(F)F)cc4)cc3CCC(=O)O)c(CCC(=O)O)c2)cc1 [Compound 541]	–	–	77	93	>99	–
CC(C)(C)c1ccc(CN(C(=O)C(=O)O)c2ccc(OCc3ccc(OC(F)(F)F)cc3)cc2)cc1 [Compound 616]	–	–	49	83	96	–
CC(C)(C)c1ccc(CN(C(=O)C(=O)O)c2cccc(OCc3ccc(OC(F)(F)F)cc3)c2)cc1 [Compound 619]	–	–	48	83	92	–
CC(C)(C)c1ccc(CN(C(=O)C(=O)O)c2ccccc2OCc2ccc(OC(F)(F)F)cc2)cc1 [Compound 620]	–	–	41	77	95	–
CC(C)(C)c1ccc(CN(C(=O)C(=O)O)c2ccc(Sc3ccc(OC(F)(F)F)cc3)cc2)cc1 [Compound 621]	–	–	67	95	91	–
CC(C)(C)c1ccc(CN(C(=O)C(=O)O)c2ccc(OCc3ccc(OC(F)(F)F)cc3)c(OCc3ccc(OC(F)(F)F)cc3)c2)cc1 [Compound 622]	–	–	44	72	88	–
CN(C(=O)C(=O)O)c1ccc(OCc2ccc(OC(F)(F)F)cc2)c(OCc2ccc(OC(F)(F)F)cc2)c1 [Compound 623]	–	–	22	41	87	–
CC(C)(C)c1ccc(CN(C(=O)C(=O)O)c2ccc(Nc3ccc(OC(F)(F)F)cc3)cc2)cc1 [Compound 626]	–	–	42	77	97	–
CC(C)(C)c1ccc(CN(C(=O)C(=O)O)c2ccc(SCc3ccc(OC(F)(F)F)cc3)cc2)cc1 [Compound 630]	–	–	56	89	88	–
CC(C)(C)c1ccc(CN(C(=O)C(=O)O)c2ccccc2Sc2ccc(OC(F)(F)F)cc2)cc1 [Compound 631]	–	–	58	86	86	–

The next lines start with results.

IC50 (recombinant human PAI-1 [1]) [nM]	IC50 (recombinant rat PAI-1) [nM]	Inhibition Rate of PAI-1 Activity (%) (recombinant human PAI-1 [2]; Compound Concentration 5 μM)	Inhibition Rate of PAI-1 Activity (%) (recombinant human PAI-1 [2]; Compound Concentration 10 μM)	Inhibition Rate of PAI-1 Activity (%) (recombinant human PAI-1 [2]; Compound Concentration 25 μM)	SMILES	also measured
1160	2880	–	–	–	CC(C)(C)c1ccc(COc2cc(-c3ccc(OC(F)(F)F)cc3)ccc2CCC(=O)O)cc1 [Compound 76]	–
1380	2330	–	–	–	CC(C)(C)c1ccc(COc2cc(Oc3ccc(OC(F)(F)F)cc3)ccc2CCC(=O)O)cc1 [Compound 78]	–
1060	2200	–	–	–	CC(C)(C)c1ccc(Oc2cc(-c3ccc(OC(F)(F)F)cc3)ccc2CCC(=O)O)cc1 [Compound 80]	–
1540	5210	–	–	–	CC(C)(C)c1ccc(COc2cccc(Oc3ccc(OC(F)(F)F)cc3)c2CCC(=O)O)cc1 [Compound 86]	–
1310	3240	–	–	–	CC(C)(C)c1ccc(COc2c(CCC(=O)O)cccc2-c2ccc(OC(F)(F)F)cc2)cc1 [Compound 88]	–
1350	2650	–	–	–	CC(C)(C)c1ccc(Oc2cc(Oc3ccc(OC(F)(F)F)cc3)ccc2CCC(=O)O)cc1 [Compound 90]	–
1340	3180	–	–	–	CC(C)(C)c1ccc(Oc2cccc(-c3ccc(OC(F)(F)F)cc3)c2CCC(=O)O)cc1 [Compound 94]	–
1330	2900	–	–	–	CC(C)(C)c1ccc(COc2ccc(Oc3ccc(OC(F)(F)F)cc3)cc2CCC(=O)O)cc1 [Compound 96]	–
1340	2300	–	–	–	CC(C)(C)c1ccc(Oc2ccc(Oc3ccc(OC(F)(F)F)cc3)cc2CCC(=O)O)cc1 [Compound 100]	–
790	1980	–	–	–	CC(C)(C)c1ccc(Oc2cc(-c3ccc(OC(F)(F)F)cc3)ccc2OCC(=O)O)cc1 [Compound 112]	–
–	–	37	71	98	CC(C)(C)c1ccc(COc2cc(CCC(=O)O)cc(Oc3ccc(OC(F)(F)F)cc3)c2)cc1 [Compound 410]	–
–	–	22	46	92	CC(C)(C)c1ccc(COc2ccc(Nc3ccc(OC(F)(F)F)cc3)cc2CCC(=O)O)cc1 [Compound 412]	–
–	–	38	66	84	CC(C)(C)c1ccc(COc2ccc(OCc3ccc(OC(F)(F)F)cc3)cc2/C=C/C(=O)O)cc1 [Compound 413]	–
–	–	33	67	96	CC(C)(C)c1ccc(COc2ccc(OCc3ccc(OC(F)(F)F)cc3)cc2CCC(=O)O)cc1 [Compound 414]	–
–	–	44	79	98	CN(c1ccc(OC(F)(F)F)cc1)c1ccc(OCc2ccc(C(C)(C)C)cc2)c(CCC(=O)O)c1 [Compound 417]	–
–	–	42	64	83	CC(C)(Nc1cc(-c2ccc(OC(F)(F)F)cc2)ccc1OCc1ccc(C(C)(C)C)cc1)C(=O)O [Compound 420]	–
–	–	14	34	65	CC(C)(C)c1ccc(COc2ccc(-c3ccc(OC(F)(F)F)cc3)cc2NCC(=O)O)cc1 [Compound 539]	–
–	–	67	–	–	CC(C)(C)c1ccc(Oc2ccc(-c3ccc(OC(F)(F)F)cc3)cc2CCC(=O)O)c(CCC(=O)O)c1 [Compound 542]	Inhibition Rate of PAI-1 Activity (%) (recombinant human PAI-1 [2]; Compound Concentration 0.5 μM): 0%; Inhibition Rate of PAI-1 Activity (%) (recombinant human PAI-1 [2]; Compound Concentration 1 μM): 14%
–	–	61	–	–	CC(C)(C)c1ccc(COc2cc(-c3ccc(OC(F)(F)F)cc3)cc(O)c2OCC(=O)O)cc1 [Compound 546]	Inhibition Rate of PAI-1 Activity (%) (recombinant human PAI-1 [2]; Compound Concentration 0.5 μM): 4%; Inhibition Rate of PAI-1 Activity (%) (recombinant human PAI-1 [2]; Compound Concentration 1 μM): 14%
–	–	38	69	>99	CC(C)(C)c1ccc(CN(C(=O)CCC(=O)O)c2ccc(-c3ccc(OC(F)(F)F)cc3)cc2)cc1 [Compound 609]	–
–	–	59	92	91	Cc1ccc(N(Cc2ccc(C(C)(C)C)cc2)C(=O)C(=O)O)cc1OCc1ccc(OC(F)(F)F)cc1 [Compound 625]	–
–	–	62	92	88	CC(C)(C)c1ccc(CN(C(=O)C(=O)O)c2ccc(Cl)c(OCc3ccc(OC(F)(F)F)cc3)c2)cc1 [Compound 629]	–
